Key:
KRas G12V = KRas G12V (Homo sapiens, UniProt P01116, G12V); assay: biochemical; settings: Binding to KRas (IC50 nM) G12V, TR-FRET displacement, KRas G12V
KRas G12D = KRas G12D (Homo sapiens, UniProt P01116, G12D); assay: biochemical; settings: Binding to KRas (IC50 nM) G12D, TR-FRET displacement, KRas G12D
KRas G12D, sequence (P01116 1-169 isoform P01116-2 G12D): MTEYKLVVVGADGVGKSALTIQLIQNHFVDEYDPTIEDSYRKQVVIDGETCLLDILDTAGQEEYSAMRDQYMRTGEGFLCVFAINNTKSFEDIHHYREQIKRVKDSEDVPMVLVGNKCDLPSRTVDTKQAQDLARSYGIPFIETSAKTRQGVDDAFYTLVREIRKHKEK

KRas G12V, sequence (P01116 1-169 isoform P01116-2 G12V): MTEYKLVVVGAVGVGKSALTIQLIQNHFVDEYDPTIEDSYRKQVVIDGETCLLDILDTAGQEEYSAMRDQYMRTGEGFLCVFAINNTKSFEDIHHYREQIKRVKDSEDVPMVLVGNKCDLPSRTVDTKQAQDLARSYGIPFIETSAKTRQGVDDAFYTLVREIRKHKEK

**Q.** How did the IC50 (KRas G12V) turn out when `CCc1cccc2cccc(N3CCc4c(nc(OCC5(CN(C)C)CC5)nc4NCCc4nncn4C(C)C)C3)c12` [Example 571, 2-((1-((dimethylamino)methyl)cyclopropyl)methoxy)-7-(8-ethylnaphthalen-1-yl)-N-(2-(4-isopropyl-4H-1,2,4-triazol-3-yl)ethyl)-5,6,7,8-tetrahydropyrido[3,4-d]pyrimidin-4-amine] was run?
**A.** 6720 nM

**Q.** And the IC50 (KRas G12D)?
**A.** 75700 nM

**Q.** How did the IC50 (KRas G12V) turn out when `CCc1cccc2cccc(N3CCc4c(nc(OCC5(CN(C)C)CC5)nc4NCCc4nnc5ccccn45)C3)c12` [Example 572, N-(2-([1,2,4]triazolo[4,3-a]pyridin-3-yl)ethyl)-2-((1-((dimethylamino)methyl)cyclopropyl)methoxy)-7-(8-ethylnaphthalen-1-yl)-5,6,7,8-tetrahydropyrido[3,4-d]pyrimidin-4-amine] was run?
**A.** 4560 nM

**Q.** What about the IC50 (KRas G12D) of the same compound?
**A.** 89400 nM

**Q.** Which IC50 (KRas G12V) does the source give for `CCc1cccc2cccc(N3CCc4c(nc(OCC5(CN(C)C)CC5)nc4NCC4(NC(=O)OC(C)(C)C)CCOC4)C3)c12` (stereo not shown) [Example 573, tert-butyl (3-(((2-((1-((dimethylamino)methyl)cyclopropyl)methoxy)-7-(8-ethylnaphthalen-1-yl)-5,6,7,8-tetrahydropyrido[3,4-d]pyrimidin-4-yl)amino)methyl)tetrahydrofuran-3-yl)carbamate] here?
**A.** 7840 nM

**Q.** What about the IC50 (KRas G12D) of the same compound?
**A.** 96000 nM

**Q.** What does the source list for `CCc1cccc2cccc(N3CCc4c(nc(OCC5(CN(C)C)CC5)nc4N4CCCOC(CC)C4)C3)c12` (stereo not shown) [Example 663, 1-(1-(((4-(2-ethyl-1,4-oxazepan-4-yl)-7-(8-ethylnaphthalen-1-yl)-5,6,7,8-tetrahydropyrido[3,4-d]pyrimidin-2-yl)oxy)methyl)cyclopropyl)-N,N-dimethylmethanamine]?
**A.** IC50 (KRas G12V): 1420 nM; IC50 (KRas G12D): 2310 nM

**Q.** For `CCc1cccc2cccc(N3CCc4c(nc(OCC5(CN(C)C)CC5)nc4N4CCOCC(C)C4)C3)c12` (stereo not shown) [Example 664, 1-(1-(((7-(8-ethylnaphthalen-1-yl)-4-(6-methyl-1,4-oxazepan-4-yl)-5,6,7,8-tetrahydropyrido[3,4-d]pyrimidin-2-yl)oxy)methyl)cyclopropyl)-N,N-dimethylmethanamine], which IC50 (KRas G12V) is on record?
**A.** 317 nM

**Q.** What about the IC50 (KRas G12D) of the same compound?
**A.** 254 nM

**Q.** With `CCc1cccc2cccc(N3CCc4c(nc(OCC5(CN(C)C)CC5)nc4N4CCOCC(O)C4)C3)c12` (stereo not shown) [Example 666, 4-(2-((1-((dimethylamino)methyl)cyclopropyl)methoxy)-7-(8-ethylnaphthalen-1-yl)-5,6,7,8-tetrahydropyrido[3,4-d]pyrimidin-4-yl)-1,4-oxazepan-6-ol] as the compound, how does the IC50 (KRas G12V) read?
**A.** 238 nM

**Q.** What about the IC50 (KRas G12D) of the same compound?
**A.** 340 nM

**Q.** For `CCc1cccc2cccc(N3CCc4c(nc(OCC5(CN(C)C)CC5)nc4N4CCCOC(C)C4)C3)c12` (stereo not shown) [Example 667, 1-(1-(((7-(8-ethylnaphthalen-1-yl)-4-(2-methyl-1,4-oxazepan-4-yl)-5,6,7,8-tetrahydropyrido[3,4-d]pyrimidin-2-yl)oxy)methyl)cyclopropyl)-N,N-dimethylmethanamine], which IC50 (KRas G12V) is on record?
**A.** 243 nM

**Q.** And the IC50 (KRas G12D)?
**A.** 223 nM

**Q.** For `CCc1cccc2cccc(N3CCc4c(nc(OCC5(CN(C)C)CC5)nc4N(C)Cc4nncn4C)C3)c12` [Example 668, 2-((1-((dimethylamino)methyl)cyclopropyl)methoxy)-7-(8-ethylnaphthalen-1-yl)-N-methyl-N-((4-methyl-4H-1,2,4-triazol-3-yl)methyl)-5,6,7,8-tetrahydropyrido[3,4-d]pyrimidin-4-amine], which IC50 (KRas G12V) is on record?
**A.** 2050 nM

**Q.** What about the IC50 (KRas G12D) of the same compound?
**A.** 8990 nM

**Q.** `CCc1cccc2cccc(N3CCc4c(nc(OCC5(CN(C)C)CC5)nc4N4CCCOCC4)C3)c12` [Example 669, 1-(1-(((7-(8-ethylnaphthalen-1-yl)-4-(1,4-oxazepan-4-yl)-5,6,7,8-tetrahydropyrido[3,4-d]pyrimidin-2-yl)oxy)methyl)cyclopropyl)-N,N-dimethylmethanamine] was tested. Which IC50 (KRas G12V) did it give?
**A.** 199 nM

**Q.** And the IC50 (KRas G12D)?
**A.** 190 nM

**Q.** For `CCc1cccc2cccc(N3CCc4c(nc(OCC5(CN(C)C)CC5)nc4N4CCOCC(CC)C4)C3)c12` (stereo not shown) [Example 672, 1-(1-(((4-(6-ethyl-1,4-oxazepan-4-yl)-7-(8-ethylnaphthalen-1-yl)-5,6,7,8-tetrahydropyrido[3,4-d]pyrimidin-2-yl)oxy)methyl)cyclopropyl)-N,N-dimethylmethanamine], which IC50 (KRas G12V) is on record?
**A.** 1440 nM

**Q.** What about the IC50 (KRas G12D) of the same compound?
**A.** 1280 nM

**Q.** For `CCc1cccc2cccc(N3CCc4c(nc(OCC5(CN(C)C)CC5)nc4NCc4ncn(C(C)C)n4)C3)c12` [Example 673, 2-((1-((dimethylamino)methyl)cyclopropyl)methoxy)-7-(8-ethylnaphthalen-1-yl)-N-((1-isopropyl-1H-1,2,4-triazol-3-yl)methyl)-5,6,7,8-tetrahydropyrido[3,4-d]pyrimidin-4-amine], which IC50 (KRas G12V) is on record?
**A.** 2440 nM

**Q.** What about the IC50 (KRas G12D) of the same compound?
**A.** 8420 nM

**Q.** For `CCc1cccc2cccc(N3CCc4c(nc(OCC5(CN(C)C)CC5)nc4N4CCOCC(CO)C4)C3)c12` (stereo not shown) [Example 678, (4-(2-((1-((dimethylamino)methyl)cyclopropyl)methoxy)-7-(8-ethylnaphthalen-1-yl)-5,6,7,8-tetrahydropyrido[3,4-d]pyrimidin-4-yl)-1,4-oxazepan-6-yl)methanol], which IC50 (KRas G12V) is on record?
**A.** 210 nM

**Q.** What about the IC50 (KRas G12D) of the same compound?
**A.** 197 nM

**Q.** `CCc1cccc2cccc(N3CCc4c(nc(OCC5(CN(C)C)CC5)nc4N4CCCC(c5c[nH]nn5)C4)C3)c12` (stereo not shown) [Example 679, 1-(1-(((4-(3-(1H-1,2,3-triazol-4-yl)piperidin-1-yl)-7-(8-ethylnaphthalen-1-yl)-5,6,7,8-tetrahydropyrido[3,4-d]pyrimidin-2-yl)oxy)methyl)cyclopropyl)-N,N-dimethylmethanamine] was tested. Which IC50 (KRas G12V) did it give?
**A.** 3190 nM

**Q.** And the IC50 (KRas G12D)?
**A.** 5890 nM

**Q.** Which IC50 (KRas G12V) does the source give for `CCc1cccc2cccc(N3CCc4c(nc(OCC5(CN(C)C)CC5)nc4N4CCCC(c5c[nH]cn5)C4)C3)c12` (stereo not shown) [Example 680, 1-(1-(((4-(3-(1H-imidazol-4-yl)piperidin-1-yl)-7-(8-ethylnaphthalen-1-yl)-5,6,7,8-tetrahydropyrido[3,4-d]pyrimidin-2-yl)oxy)methyl)cyclopropyl)-N,N-dimethylmethanamine] here?
**A.** 3130 nM

**Q.** And the IC50 (KRas G12D)?
**A.** 5490 nM

**Q.** Which results are given for `CCc1cccc2cccc(N3CCc4c(nc(OCC5(CN(C)C)CC5)nc4N4CCCC(c5ccon5)C4)C3)c12` (stereo not shown) [Example 681, 1-(1-(((7-(8-ethylnaphthalen-1-yl)-4-(3-(isoxazol-3-yl)piperidin-1-yl)-5,6,7,8-tetrahydropyrido[3,4-d]pyrimidin-2-yl)oxy)methyl)cyclopropyl)-N,N-dimethylmethanamine]?
**A.** IC50 (KRas G12V): 3220 nM; IC50 (KRas G12D): 3830 nM

**Q.** For `CCc1cccc2cccc(N3CCc4c(nc(OCC5(CN(C)C)CC5)nc4N4CCCC(n5cccn5)C4)C3)c12` (stereo not shown) [Example 682, 1-(1-(((4-(3-(1H-pyrazol-1-yl)piperidin-1-yl)-7-(8-ethylnaphthalen-1-yl)-5,6,7,8-tetrahydropyrido[3,4-d]pyrimidin-2-yl)oxy)methyl)cyclopropyl)-N,N-dimethylmethanamine], which IC50 (KRas G12V) is on record?
**A.** 1760 nM

**Q.** What about the IC50 (KRas G12D) of the same compound?
**A.** 1610 nM

**Q.** With `CCc1cccc2cccc(N3CCc4c(nc(OCC5(CN(C)C)CC5)nc4N4CCCC(c5ncc[nH]5)C4)C3)c12` (stereo not shown) [Example 685, 1-(1-(((4-(3-(1H-imidazol-2-yl)piperidin-1-yl)-7-(8-ethylnaphthalen-1-yl)-5,6,7,8-tetrahydropyrido[3,4-d]pyrimidin-2-yl)oxy)methyl)cyclopropyl)-N,N-dimethylmethanamine] as the compound, how does the IC50 (KRas G12V) read?
**A.** 1860 nM

**Q.** What about the IC50 (KRas G12D) of the same compound?
**A.** 1650 nM

**Q.** With `CCc1cccc2cccc(N3CCc4c(nc(OCC5(CN(C)C)CC5)nc4NCc4nnc5n4CCCCC5)C3)c12` [Example 686, 2-((1-((dimethylamino)methyl)cyclopropyl)methoxy)-7-(8-ethylnaphthalen-1-yl)-N-((6,7,8,9-tetrahydro-5H-[1,2,4]triazolo[4,3-a]azepin-3-yl)methyl)-5,6,7,8-tetrahydropyrido[3,4-d]pyrimidin-4-amine] as the compound, how does the IC50 (KRas G12V) read?
**A.** 4520 nM

**Q.** And the IC50 (KRas G12D)?
**A.** 5250 nM

**Q.** With `CCc1cccc2cccc(N3CCc4c(nc(OCC5(CN(C)C)CC5)nc4N4CCCC(c5nc(C)c(C)[nH]5)C4)C3)c12` (stereo not shown) [Example 687, 1-(1-(((4-(3-(4,5-dimethyl-1H-imidazol-2-yl)piperidin-1-yl)-7-(8-ethylnaphthalen-1-yl)-5,6,7,8-tetrahydropyrido[3,4-d]pyrimidin-2-yl)oxy)methyl)cyclopropyl)-N,N-dimethylmethanamine] as the compound, how does the IC50 (KRas G12V) read?
**A.** 6230 nM

**Q.** And the IC50 (KRas G12D)?
**A.** 10800 nM

**Q.** Which IC50 (KRas G12V) does the source give for `CCc1cccc2cccc(N3CCc4c(nc(OCC5(CN(C)C)CC5)nc4N4CCCC(c5ccn(C)n5)C4)C3)c12` (stereo not shown) [Example 689, 1-(1-(((7-(8-ethylnaphthalen-1-yl)-4-(3-(1-methyl-1H-pyrazol-3-yl)piperidin-1-yl)-5,6,7,8-tetrahydropyrido[3,4-d]pyrimidin-2-yl)oxy)methyl)cyclopropyl)-N,N-dimethylmethanamine] here?
**A.** 4310 nM

**Q.** What about the IC50 (KRas G12D) of the same compound?
**A.** 7420 nM

**Q.** What does the source list for `CCc1cccc2cccc(N3CCc4c(nc(OCC5(CN(C)C)CC5)nc4N4CCCC(c5nc(=O)[nH][nH]5)C4)C3)c12` (stereo not shown) [Example 690, 5-(1-(2-((1-((dimethylamino)methyl)cyclopropyl)methoxy)-7-(8-ethylnaphthalen-1-yl)-5,6,7,8-tetrahydropyrido[3,4-d]pyrimidin-4-yl)piperidin-3-yl)-1,2-dihydro-3H-1,2,4-triazol-3-one]?
**A.** IC50 (KRas G12V): 1360 nM; IC50 (KRas G12D): 5440 nM

**Q.** What does the source list for `CCc1cccc2cccc(N3CCc4c(nc(OCC5(CN(C)C)CC5)nc4NCc4nnc(C5CCOC5)[nH]4)C3)c12` (stereo not shown) [Example 691, 2-((1-((dimethylamino)methyl)cyclopropyl)methoxy)-7-(8-ethylnaphthalen-1-yl)-N-((5-(tetrahydrofuran-3-yl)-4H-1,2,4-triazol-3-yl)methyl)-5,6,7,8-tetrahydropyrido[3,4-d]pyrimidin-4-amine]?
**A.** IC50 (KRas G12V): 5300 nM; IC50 (KRas G12D): 7300 nM

**Q.** What does the source list for `CCc1cccc2cccc(N3CCc4c(nc(OCC5(CN(C)C)CC5)nc4N4CCCC(c5nccn5C)C4)C3)c12` (stereo not shown) [Example 692, 1-(1-(((7-(8-ethylnaphthalen-1-yl)-4-(3-(1-methyl-1H-imidazol-2-yl)piperidin-1-yl)-5,6,7,8-tetrahydropyrido[3,4-d]pyrimidin-2-yl)oxy)methyl)cyclopropyl)-N,N-dimethylmethanamine]?
**A.** IC50 (KRas G12V): 8850 nM; IC50 (KRas G12D): 16100 nM

Reference: patent US20250368649A1, “TETRAHYDROPYRIDOPYRIMIDINE PAN-KRAS INHIBITORS” (Mirati Therapeutics, Inc., priority 2022, published 2025)
